Experimental data reported in US12600725B2 (Memorial Sloan-Kettering Cancer Center, priority 2013, dated 2026).
Entries after “also recorded” stand apart in the source; their conditions may differ. Read-outs that look alike come from different tables or passages of the source.

Key:
97 kinases = assay: Kinase screen (Discoverx scanEDGE / KINOMEscan); format: binding; conditions: tested at 10 uM
Trap-1 [1] = biological target: T1, Trap-1 (Homo sapiens, UniProt Q12931); conditions: read-out: TRAP-1
T1 sequence (Q12931 60-704): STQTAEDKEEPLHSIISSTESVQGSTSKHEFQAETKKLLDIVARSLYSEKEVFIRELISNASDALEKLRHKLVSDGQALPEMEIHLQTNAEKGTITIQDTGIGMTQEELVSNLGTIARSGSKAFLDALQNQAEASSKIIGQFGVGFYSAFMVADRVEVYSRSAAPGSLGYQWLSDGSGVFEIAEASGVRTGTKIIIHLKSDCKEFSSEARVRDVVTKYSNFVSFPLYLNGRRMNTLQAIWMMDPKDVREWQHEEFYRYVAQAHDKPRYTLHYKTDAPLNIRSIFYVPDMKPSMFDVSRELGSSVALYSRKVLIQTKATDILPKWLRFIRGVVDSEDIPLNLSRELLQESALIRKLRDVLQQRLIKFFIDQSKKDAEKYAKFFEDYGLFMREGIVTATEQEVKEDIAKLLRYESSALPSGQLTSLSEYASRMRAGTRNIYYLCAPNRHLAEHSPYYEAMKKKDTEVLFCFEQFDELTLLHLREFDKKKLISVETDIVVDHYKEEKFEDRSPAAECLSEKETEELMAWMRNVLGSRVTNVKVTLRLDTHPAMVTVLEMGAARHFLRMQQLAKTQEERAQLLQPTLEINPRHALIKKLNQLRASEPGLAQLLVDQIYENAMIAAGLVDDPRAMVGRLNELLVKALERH

Hsp90α [2] = biological target: T2, Hsp90α (Homo sapiens, UniProt P07900); assay: biochemical
Grp94 = Grp94 (Canis lupus familiaris, UniProt P41148); conditions: read-out: Grp94; FP competition, 6 nM Cy3B-GM, 10 nM protein, 4° C. for 24 h
Hsp90β = Hsp90β (Homo sapiens, UniProt P08238)
[3] = system: PANC1 EGFR-overexpressing cells; conditions: Mol Cancer Ther 2006; 5:2051-2059; cited from earlier work
[4] = system: Human Umbilical Vein Endothelial Cells (HUVECs); assay: Angiogenesis studies with HUVEC cells; format: cell-based
[5] = system: TLR9 ligand CpG DNA induced TNF-α production in RAW 264.7 macrophages; assay: TNFα ELISA, CpG DNA stimulated macrophages; format: cell-based, mouse
Hsp90α [6] = biological target: T2, Hsp90α
[7] = system: IGF-II secretion by differentiated C2C12 cells; assay: C2C12 differentiation and IGF-II secretion assay; format: cell-based, mouse; conditions: 24 hrs treatment
Excerpt: C2C12 differentiation and IGF-II secretion assay (Wanderling, S. et al. GRP94 is essential for mesoderm induction and muscle development because it regulates insulin-like growth factor secretion. Mol. Biol. Cell 18, 3764-75 (2007); Ostrovsky, O., Ahmed, N.T. & Argon, Y. The chaperone activity of GRP94 toward insulin-like growth factor II is necessary for the stress response to serum deprivation. Mol. Biol. Cell 20, 1855-64 (2009)). C2C12 cells were maintained and cultured in DMEM in the presence of 10% FBS and 1% penicillin/streptomycin (Culture medium). C2C12 is an immortal line of mouse skeletal myoblasts originally derived from satellite cells from the thigh muscle of a two month old female mouse donor. These cells differentiate well into myocytes under appropriate culture conditions. […] Secreted IGF-II was quantified by using IGF-II mouse ELISA kit (Abcam, AB100696) according to the manufacturer's instructions. […] The bound IGF-II was detected with a biotinylated anti-IGF-II antibody. After the sequential incubation with HRP conjugated streptavidin, TMB One-step substrate reagent and the Stop solution, the absorbance was measured at 450 nm. The secreted IGF-II was quantified against a standard curve generated with recombinant IGF-II provided by the kit.

[8] = system: Toll-like receptor 9 (TLR9) trafficking in HEK293 cells transfected with HA-TLR9; assay: TLR9-trafficking assay; format: cell-based, human; conditions: 24 h treatment
Method: TLR^9-trafficking assay (Yang, Y. et al. Heat shock protein gp96 is a master chaperone for toll-like receptors and is important in the innate function of macrophages. Immunity 26, 215-26 (2007)). HEK 293T cells were transfected with pUNO-hTLR9-HA (Invivogen) using X-tremgene HP (Roche) according to the manufacturer's instructions. At 24 hrs post-transfection, cells were split onto cell culture chamber slides (Lab-Tek). Cells were then treated for 24 hrs with indicated compound at varying concentrations. After treatment, cells were fixed for 20 min in 4% paraformaldehyde in PBS, permeabilized with 0.1% Triton-X 100 in PBS for 10 min, blocked with 3% BSA in PBS for 30 min, followed by staining for 1 hr with an anti-HA antibody (Abcam, ab9110) or a normal rabbit IgG. Cells were washed with PBS, stained with an anti-rabbit-Cy3 antibody (Invitrogen) and finally mounted in the dark at 4° C. with Prolong Gold Antifade reagent (with DAPI). Cells were visualized under a confocal microscope (Leica Upright Confocal SP5). Fluorescence intensity was quantified using MetaMorph Microscopy Automation and Image Analysis Software (Molecular Devices Inc.) and normalized to the cell number.

[9] = system: Hsp70 induction and AKT degradation (cytosolic Hsp90 hallmarks) in C2C12 cells; assay: Western blot of Hsp70 induction and AKT degradation in C2C12 cells; format: cell-based, mouse; conditions: 24 hrs
Method: Cell fractionation and immunoblotting. Cells were either treated with DMSO (vehicle) or indicated compounds for 24 hr and lysed in RIPA buffer (50 mM Tris-HCl, pH 7.4, 150 mM NaCl, 0.5% sodium deoxycholate and 0.5% NP40) supplemented with cocktail protease inhibitors (Roche) to produce whole cell lysates. Lysates for cytosol and membrane fractions were harvested using ProteoExtract Subcellular Proteome Extraction Kit (Calbiochem) following the manufacturer's instructions. Protein concentrations were determined using BCA kit (Pierce) according to the manufacturer's instructions. […] After washing off the excess antibodies, the membranes were incubated with the corresponding horseradish peroxidase (HRP) conjugated secondary antibody. Blots were visualized by autoradiography using the Enhanced Chemiluminescence Detection System (GE Healthcare) according to manufacturer's instructions. For all gels 3-actin was used as a protein loading control.

[10] = system: Hsp70 induction in HEK293 cells; assay: Hsp70 induction in HA-TLR9 transfected HEK293 cells; format: cell-based, human; conditions: 24 h
Method: Cell fractionation and immunoblotting. Cells were either treated with DMSO (vehicle) or indicated compounds for 24 hr and lysed in RIPA buffer (50 mM Tris-HCl, pH 7.4, 150 mM NaCl, 0.5% sodium deoxycholate and 0.5% NP40) supplemented with cocktail protease inhibitors (Roche) to produce whole cell lysates. Lysates for cytosol and membrane fractions were harvested using ProteoExtract Subcellular Proteome Extraction Kit (Calbiochem) following the manufacturer's instructions. Protein concentrations were determined using BCA kit (Pierce) according to the manufacturer's instructions. The protein lysates ([…]) were electrophoretically resolved by SDS-PAGE, transferred onto nitrocellulose membranes and probed with the indicated primary antibodies against: HER^2 (Zymed, 28004), Hsp70 (Stressgen, SPA-810), Grp94 (Stressgen, SPA-850), Hsp90α (Abcam, Ab2928), Hsp90β (StressMarq, SMC-107B), Grp78 (Cell Signaling, 3183), Raf-1 (Santa Cruz, sc-133), phospho-Raf-1 (Cell Signaling, 9421), MEK1/2 (Cell Signaling, 8727), phospho-MEK1/2 (Cell Signaling, 9154), ERK1/2 (Cell Signaling, 4695), phospho-ERK1/2 (Cell Signaling, 4370), AKT (Cell Signaling, 9272), GM130 (Cell Signaling, 2296), Flotillin 2 (Cell Signaling, 3436), Histone H4 (Cell Signaling, 2592), Histone H1 (Santa Cruz, sc-8030), Caspase 3 (Cell Signaling, 9665), cleaved PARP (Promega, G7341), a-tubulin (Sigma, T5168) and 3-actin (Sigma, A1978). After washing off the excess antibodies, the membranes were incubated with the corresponding horseradish peroxidase (HRP) conjugated secondary antibody. Blots were visualized by autoradiography using the Enhanced Chemiluminescence Detection System (GE Healthcare) according to manufacturer's instructions. […]
TLR^9-trafficking assay (Yang, Y. et al. Heat shock protein gp96 is a master chaperone for toll-like receptors and is important in the innate function of macrophages. Immunity 26, 215-26 (2007)). […] Fluorescence intensity was quantified using MetaMorph Microscopy Automation and Image Analysis Software (Molecular Devices Inc.) and normalized to the cell number.

[11] = system: HER2 at the plasma membrane of SKBr3 cells; assay: Immunofluorescence of HER2 architecture at the plasma membrane; format: cell-based
Method: We next investigated the biological significance of the unique association of HER^2 with Grp94 at the plasma membrane of SKBr3 cells. Because the Grp94 inhibitors described here target the ATP-binding pocket of Grp94, they affect Grp94 chaperone activity. Therefore we hypothesized that Grp94 may act on HER^2 at the plasma membrane to stabilize the protein and to regulate its function.
Immunofluorescence. Cells were seeded and grown onto culture slides (BD Falcon) for 24 hrs. After washing with cold PBS, cells were fixed by treating at 4° C. for 20 min with 4% paraformaldehyde in PBS, permeabilized with 0.1% Triton X-100 in PBS containing 10% FBS for 10 min, and blocked with 2% BSA for 1 hr. After washing for four times with PBS, primary antibodies were added onto the chambers and cell were incubated overnight at 4° C., washed again with PBS followed by incubation with the secondary antibody for 1 hr at room temperature. Cell were washed and then mounted and observed under microscope (Leica Upright Confocal SP5). The primary antibodies used in the assay are against: HER^2 (Zymed, 28004), Grp94 (Stressgen, SPA-850), Hsp70 (Stressgen, SPA-810), LAMP1-FITC (Abcam, ab25406), EEA1 (Abcam, ab70521), 58K Golgi-FITC (Abcam, ab27043) and Calnexin (BD, 610523).

PANC-1 cells = assay: Apoptosis assessment (Annexin V / 7AAD); format: cell-based
Excerpt: Annexin V Apoptosis with 7-AAD has been specifically designed for the identification of apoptotic and necrotic cells. Annexin V (or Annexin A5) is a member of the annexin family of intracellular proteins that binds to phosphatidylserine (PS) in a calcium-dependent manner. PS is normally only found on the intracellular leaflet of the plasma membrane in healthy cells, but during early apoptosis, membrane asymmetry is lost and PS translocates to the external leaflet. Fluorochrome-labeled Annexin V can then be used to specifically target and identify apoptotic cells. Annexin V binding alone cannot differentiate between apoptotic and necrotic cells. To help distinguish between the necrotic and apoptotic cells 7-amino-actinomycin D (7-AAD) is used. Early apoptotic cells will exclude 7-AAD, while late stage apoptotic cells will stain positively, due to the passage of these dyes into the nucleus where they bind to DNA. 7-AAD (7-amino-actinomycin D) has a high DNA binding constant and is efficiently excluded by intact cells. It is useful for DNA analysis and dead cell discrimination during flow cytometric analysis. When excited by 488 laser light, 7-AAD fluorescence is detected in the far red range of the spectrum (650 nm long-pass filter).
Cell cycle and apoptosis assessment. Cell cycle and apoptosis were assessed by flow cytometry after single staining with propidium iodide (PI, BD Pharmingen) or double staining with AnnexinV-FITC (BD Pharmingen) and 7AAD (BD Pharmingen), respectively. Specifically, for cell cycle analysis, cells were washed twice with cold PBS and fixed in 70% ethanol overnight at 4° C. Fixed cells were collected at 1800 rpm for 10 min and stained with PBS containing PI and DNase-free RNase A (Sigma-Aldrich) for 1 h at room temperature in the dark. DNA content was measured by BD LSRII flow cytometer and cell further analyzed using program of cell cycle analysis in FloJo (Ashland, OR). The chicken erythrocyte nuclei singlets (CEN, Biosure) were used as the reference. For apoptosis assessment, live cells were collected, washed twice with cold PBS, resuspended in Binding Buffer and stained with AnnexinV-FITC and 7AAD for 15 min at room temperature in the dark. Signals from FL1 and FL3 channels were collected by MACSQuant analyzer and further analyzed using FloJo. Early apoptosis was defined as AnnexinV+/7AAD−, and late apoptosis was observed as AnnexinV+/7AAD+.

C2C12 cells = assay: Viability of C2C12 cells visualized by light microscopy; format: cell-based, mouse; conditions: 24 h
Trap-1 [12] = biological target: T1, Trap-1; conditions: relative to Hsp90

Hsp90β, sequence (P08238 whole entry): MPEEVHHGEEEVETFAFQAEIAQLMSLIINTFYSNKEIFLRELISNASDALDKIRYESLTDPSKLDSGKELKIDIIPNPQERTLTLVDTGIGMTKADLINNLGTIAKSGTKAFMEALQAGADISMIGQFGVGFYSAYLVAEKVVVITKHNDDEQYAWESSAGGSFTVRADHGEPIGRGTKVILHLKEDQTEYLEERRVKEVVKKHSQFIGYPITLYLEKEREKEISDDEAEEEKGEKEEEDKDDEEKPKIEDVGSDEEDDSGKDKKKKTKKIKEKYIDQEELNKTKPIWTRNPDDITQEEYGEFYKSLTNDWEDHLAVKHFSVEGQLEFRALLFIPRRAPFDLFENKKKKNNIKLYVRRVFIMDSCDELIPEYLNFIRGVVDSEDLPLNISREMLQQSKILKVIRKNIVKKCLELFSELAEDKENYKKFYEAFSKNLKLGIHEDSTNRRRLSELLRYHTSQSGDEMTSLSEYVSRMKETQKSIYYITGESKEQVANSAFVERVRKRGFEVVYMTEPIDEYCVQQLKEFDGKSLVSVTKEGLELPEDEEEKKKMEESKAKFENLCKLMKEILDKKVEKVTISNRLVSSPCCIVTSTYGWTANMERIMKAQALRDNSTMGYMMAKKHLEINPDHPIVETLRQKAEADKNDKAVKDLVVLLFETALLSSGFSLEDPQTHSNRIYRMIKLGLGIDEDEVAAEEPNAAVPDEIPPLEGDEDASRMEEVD
Grp94, sequence (P41148 with tags, fused parts or gaps DELINS287-327GGGG): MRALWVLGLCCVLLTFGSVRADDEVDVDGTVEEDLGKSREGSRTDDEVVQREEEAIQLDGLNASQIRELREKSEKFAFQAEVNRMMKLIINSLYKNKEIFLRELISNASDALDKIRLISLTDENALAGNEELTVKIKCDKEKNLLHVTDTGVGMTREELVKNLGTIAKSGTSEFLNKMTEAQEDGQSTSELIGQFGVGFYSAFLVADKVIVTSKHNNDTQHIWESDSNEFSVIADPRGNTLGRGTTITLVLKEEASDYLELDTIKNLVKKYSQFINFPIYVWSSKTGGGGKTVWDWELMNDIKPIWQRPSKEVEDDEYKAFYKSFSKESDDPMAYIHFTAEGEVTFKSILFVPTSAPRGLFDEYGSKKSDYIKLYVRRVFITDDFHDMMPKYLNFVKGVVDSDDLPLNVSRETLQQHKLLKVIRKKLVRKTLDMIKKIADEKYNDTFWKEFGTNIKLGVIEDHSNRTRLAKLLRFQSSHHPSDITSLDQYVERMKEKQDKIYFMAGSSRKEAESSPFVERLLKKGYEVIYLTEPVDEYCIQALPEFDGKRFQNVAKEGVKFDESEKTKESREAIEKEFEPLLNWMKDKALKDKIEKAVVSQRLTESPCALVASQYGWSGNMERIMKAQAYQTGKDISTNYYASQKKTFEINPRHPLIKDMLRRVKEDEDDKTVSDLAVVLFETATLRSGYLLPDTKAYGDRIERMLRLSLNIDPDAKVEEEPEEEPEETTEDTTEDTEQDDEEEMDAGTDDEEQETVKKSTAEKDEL

SMILES	IC50 (Trap-1 [1]) [µM]	IC50 (Hsp90β) [µM]	TLR9 trafficking [8]	AKT degradation [9]	Hsp70 induction [9]	Hsp70 induction [10]	induction of apoptosis (PANC-1 cells)	also measured
C#CCCCn1c(Sc2ccc(Cl)cc2Cl)nc2c(N)ncnc21 [PU-H39]	145 ± 13.4	> 300	–	–	–	–	–	effect on the tested 97 kinases (97 kinases): no significant effect; IC50 (Hsp90α [2]; FP competition, 6 nM Cy3B-GM, 10 nM protein, 4° C. for 24 h): > 300 µM; IC50 (Grp94): 0.12 ± 0.04 µM
C#Cc1cccc(Nc2ncnc3cc(OCCOC)c(OCCOC)cc23)c1 [erlotinib]	–	–	–	–	–	–	–	reported resistance of PANC1 cells [3]: resistant
C#CCCCn1cnc(N)c2nc(Sc3ccc(C)cc3C)nc1-2 [PU-H54]	54.1 ± 4.6	> 250	–	–	–	–	–	HUVEC cell proliferation [4]: does not affect substantially the cell proliferation; angiogenic-like transformation of HUVECs induced by Grp94 and by peak 2 [4]: able to change the angiogenic-like transformation of HUVECs; also recorded: displays an anti-angiogenic effect; also recorded: inhibited; CpG DNA induced TNF-α production [5]: inhibited this response in a concentration dependent manner; also recorded: inhibit; affinity for Hsp90 (Hsp90α [6]): low affinity; IC50 (Hsp90α [2]): > 250 µM
COc1cc(Cc2nc3c(N)nc(F)nc3n2CCOC(C)C)cc(OC)c1OC [PU-29F]	–	–	minimally effecting; also recorded: fails to inhibit TLR^9 trafficking	degradation of AKT; also recorded: degrade AKT	dose-dependent increase in Hsp90 levels; also recorded: induce Hsp70	induces Hsp70	very little effect	IGF-II secretion [7]: minimally effecting; effect on HER2 architecture at the plasma membrane [11]: failed to disturb the membrane HER^2 architecture
COC1=C2C[C@@H](C)C[C@H](OC)[C@H](O)[C@@H](C)/C=C(\C)[C@H](OC(N)=O)[C@@H](OC)/C=C\C=C(/C)C(=O)NC(=CC1=O)C2=O [GM, geldanamycin, reference compound]	–	–	–	–	–	–	–	toxicity to C2C12 cells (C2C12 cells): cell killing
CC(C)NCCCn1c(Sc2cc3c(cc2I)OCO3)nc2c(N)ncnc21 [PU-H71]	–	–	inhibit TLR^9 trafficking	degrade AKT	induce Hsp70	induce Hsp70	very little effect	decrease in binding efficacy for Trap-1 (Trap-1 [12]): 5 fold
